{"source": "patent US9132084B2", "about": "“Methods for administration and formulations for the treatment of regional adipose tissue” (NEOTHETICS, INC., priority 2009, dated 2015)", "experiment": "Plasma pharmacokinetics following a single intravenous and subcutaneous injection of a combination of formoterol and budesonide", "conditions": "for AUC(0-inf): AUCinf; for bioavailability: F (bioavailability); for concentration at 0.0333 hr: female 2-0623, 0.0333 hr; for concentration at 0.0833 hr: female 2-0623, 0.0833 hr; for concentration at 0.167 hr: female 2-0623, 0.167 hr; for concentration at 0.333 hr: female 2-0623, 0.333 hr; for concentration at 0.5 hr: female 2-0623, 0.500 hr; for concentration at 0.75 hr: female 2-0623, 0.750 hr; for concentration at 1 hr: female 2-0623, 1.00 hr; for concentration at 2 hr: female 2-0623, 2.00 hr; for concentration at 4 hr: female 2-0623, 4.00 hr; for concentration at 8 hr: female 2-0623, 8.00 hr", "protocol": "Formoterol fumarate dehydrate and budesonide were formulated in 2% PEG-400 in saline. 1 male and 1 female non-naive Gottingen minipigs (8 to 12 kg upon receipt per protocol) were utilized. The animals were housed individually.\nEach minipig received a single IV injection of the combined formoterol and budesonide formulation followed by testing of the SC doses. Each dose was separated by at least a 3-day washout period. The IV dose was administered by slow bolus (1 minute; 0.017 hr) into the marginal ear vein, whereas the first SC dose was administered as a bolus injection along the back (neck-region) where there was a longitudinal fat depot. The second SC dose was distributed in 5 separate proximal SC injections separated by approximately 2 cm. Blood samples (approximately 4 mL) were collected via the branchiocephalic plexus at pre-dose and at 2, 5, 10, 20, 30 and 45 minutes, and at 1, 2, 4, 8 and 24 hr post-dose. Blood samples were placed in tubes containing K2-EDTA as the anticoagulant. Samples were processed to plasma by centrifugation and stored frozen at approximately −70° C. (+/−15° C.) until shipment for analysis.\nPlasma samples were analyzed for formoterol and budesonide using a qualified liquid chromatography/mass spectrometry/mass mass spectrometry (LC/MS/MS) method. The lower limit of quantitation (LLOQ) was 1.00 pg/mL for formoterol and 25.0 pg/mL for budesonide.\nNon-compartmental pharmacokinetic parameters were calculated using WinNonlin 5.2 software, NCA model 202, IV infusion input for the IV data and NCA model 200, extravascular input for the SC data. Individual plasma concentrations for each animal were used in the calculation of pharmacokinetic parameters. Nominal collection times and doses were used in the calculations. The area under the plasma concentration-time curve (AUC) was calculated using linear trapezoidal approximation (linear/log interpolation). Concentration values below the assay limit of quantitation were set to zero for calculations. The maximum plasma concentration (Cmax) and the time of its occurrence (Tmax) were verified by inspection. The half-life (t1/2) values were calculated using the last 3 plasma concentrations with nonzero values, if data permitted.", "key": {"[1]": {"conditions": "female, Gottingen, minipig, in vivo, formoterol 0.4 μg/kg SC1 single site, combination, female 2-0623"}, "[2]": {"conditions": "female, Gottingen, minipig, in vivo, formoterol 0.4 μg/kg SC5 (5 sites), combination, female 2-0623"}, "[3]": {"conditions": "female, Gottingen, minipig, in vivo, Plasma concentration of formoterol, SC1 0.4 μg/kg, combination"}, "[4]": {"conditions": "female, Gottingen, minipig, in vivo, Plasma concentration of formoterol, SC5 0.4 μg/kg, combination"}, "[5]": {"conditions": "female, Gottingen, minipig, in vivo, iv, 0.4 ug/kg"}, "[6]": {"conditions": "female, Gottingen, minipig, in vivo, iv, 0.4 ug/kg, formoterol 0.4 μg/kg IV in combination with budesonide, female 2-0623"}, "[7]": {"conditions": "female, Gottingen, minipig, in vivo, iv, Plasma concentration of formoterol, IV 0.4 μg/kg, combination"}}}
{"compound": "COc1ccc(CC(C)NCC(O)c2ccc(O)c(NC=O)c2)cc1", "note": "(centres unmarked) [Formoterol, formoterol]", "values": [{"measurement": "Plasma concentration of formoterol", "setting": "IV 0.4 μg/kg, combination, female 2-0623, 24.0 hr", "result": "<LLOQ (LLOQ = 1.00 pg/mL for formoterol)"}, {"measurement": "Plasma concentration of formoterol", "setting": "IV 0.4 μg/kg, combination, male 1-0771, 0 hr", "result": "<LLOQ (LLOQ = 1.00 pg/mL for formoterol)"}, {"measurement": "Plasma concentration of formoterol", "setting": "IV 0.4 μg/kg, combination, male 1-0771, 24.0 hr", "result": "<LLOQ (LLOQ = 1.00 pg/mL for formoterol)"}, {"measurement": "Plasma concentration of formoterol", "setting": "SC1 0.4 μg/kg, combination, female 2-0623, 0 hr", "result": "<LLOQ (LLOQ = 1.00 pg/mL for formoterol)"}, {"measurement": "Plasma concentration of formoterol", "setting": "SC1 0.4 μg/kg, combination, female 2-0623, 24.0 hr", "result": "<LLOQ (LLOQ = 1.00 pg/mL for formoterol)"}, {"measurement": "Plasma concentration of formoterol", "setting": "SC5 0.4 μg/kg, combination, female 2-0623, 0 hr", "result": "<LLOQ (LLOQ = 1.00 pg/mL for formoterol)"}, {"measurement": "Plasma concentration of formoterol", "setting": "SC5 0.4 μg/kg, combination, male 1-0771, 0 hr", "result": "<LLOQ (LLOQ = 1.00 pg/mL for formoterol)"}, {"measurement": "AUC(0-inf)", "setting": "[1]", "result": 0.378, "unit": "ng·h/mL"}, {"measurement": "AUC(0-inf)", "setting": "[2]", "result": 0.577, "unit": "ng·h/mL"}, {"measurement": "Cmax", "setting": "[1]", "result": 0.284, "unit": "ng/mL"}, {"measurement": "Cmax", "setting": "[2]", "result": 0.256, "unit": "ng/mL"}, {"measurement": "bioavailability", "setting": "[1]", "result": 115, "unit": "%"}, {"measurement": "bioavailability", "setting": "[2]", "result": 176, "unit": "%"}, {"measurement": "concentration at 0.0333 hr", "setting": "[3]", "result": 0.169, "unit": "ng/mL"}, {"measurement": "concentration at 0.0833 hr", "setting": "[3]", "result": 0.284, "unit": "ng/mL"}, {"measurement": "concentration at 0.167 hr", "setting": "[3]", "result": 0.237, "unit": "ng/mL"}, {"measurement": "concentration at 0.333 hr", "setting": "[3]", "result": 0.156, "unit": "ng/mL"}, {"measurement": "concentration at 0.5 hr", "setting": "[3]", "result": 0.127, "unit": "ng/mL"}, {"measurement": "concentration at 0.75 hr", "setting": "[3]", "result": 0.0789, "unit": "ng/mL"}, {"measurement": "concentration at 1 hr", "setting": "[3]", "result": 0.0678, "unit": "ng/mL"}, {"measurement": "concentration at 2 hr", "setting": "[3]", "result": 0.0512, "unit": "ng/mL"}, {"measurement": "concentration at 4 hr", "setting": "[3]", "result": 0.0285, "unit": "ng/mL"}, {"measurement": "concentration at 8 hr", "setting": "[3]", "result": 0.00858, "unit": "ng/mL"}, {"measurement": "concentration at 0.0333 hr", "setting": "[4]", "result": 0.0946, "unit": "ng/mL"}, {"measurement": "concentration at 0.0833 hr", "setting": "[4]", "result": 0.256, "unit": "ng/mL"}, {"measurement": "concentration at 0.167 hr", "setting": "[4]", "result": 0.178, "unit": "ng/mL"}, {"measurement": "concentration at 0.333 hr", "setting": "[4]", "result": 0.131, "unit": "ng/mL"}, {"measurement": "concentration at 0.5 hr", "setting": "[4]", "result": 0.1, "unit": "ng/mL"}, {"measurement": "concentration at 0.75 hr", "setting": "[4]", "result": 0.0826, "unit": "ng/mL"}, {"measurement": "concentration at 1 hr", "setting": "[4]", "result": 0.0628, "unit": "ng/mL"}, {"measurement": "concentration at 2 hr", "setting": "[4]", "result": 0.0444, "unit": "ng/mL"}, {"measurement": "concentration at 4 hr", "setting": "[4]", "result": 0.026, "unit": "ng/mL"}, {"measurement": "concentration at 8 hr", "setting": "[4]", "result": 0.0103, "unit": "ng/mL"}, {"measurement": "concentration at 24 hr", "setting": "female, Gottingen, minipig, in vivo, Plasma concentration of formoterol, SC5 0.4 μg/kg, combination, female 2-0623, 24.0 hr", "result": 0.00695, "unit": "ng/mL"}, {"measurement": "Tmax", "setting": "[1]", "result": 5, "unit": "min"}, {"measurement": "Tmax", "setting": "[2]", "result": 5, "unit": "min"}, {"measurement": "Vd", "setting": "[5]", "result": 3.17, "unit": "L/kg"}, {"measurement": "clearance", "setting": "[5]", "result": 20.3, "unit": "mL/min/kg"}, {"measurement": "AUC(0-inf)", "setting": "[6]", "result": 0.328, "unit": "ng·h/mL"}, {"measurement": "Cmax", "setting": "[6]", "result": 0.9, "unit": "ng/mL"}, {"measurement": "Tmax", "setting": "[6]", "result": 2, "unit": "min"}, {"measurement": "half-life", "setting": "female, Gottingen, minipig, in vivo, iv, 0.4 ug/kg, t1/2, formoterol 0.4 μg/kg IV in combination with budesonide, female 2-0623", "result": 2.86, "unit": "h"}, {"measurement": "concentration at 0 hr", "setting": "female, Gottingen, minipig, in vivo, iv, Plasma concentration of formoterol, IV 0.4 μg/kg, combination, female 2-0623, 0 hr", "result": 0.00353, "unit": "ng/mL"}, {"measurement": "concentration at 0.0333 hr", "setting": "[7]", "result": 0.9, "unit": "ng/mL"}, {"measurement": "concentration at 0.0833 hr", "setting": "[7]", "result": 0.204, "unit": "ng/mL"}, {"measurement": "concentration at 0.167 hr", "setting": "[7]", "result": 0.11, "unit": "ng/mL"}, {"measurement": "concentration at 0.333 hr", "setting": "[7]", "result": 0.0735, "unit": "ng/mL"}, {"measurement": "concentration at 0.5 hr", "setting": "[7]", "result": 0.0984, "unit": "ng/mL"}, {"measurement": "concentration at 0.75 hr", "setting": "[7]", "result": 0.0614, "unit": "ng/mL"}, {"measurement": "concentration at 1 hr", "setting": "[7]", "result": 0.0454, "unit": "ng/mL"}, {"measurement": "concentration at 2 hr", "setting": "[7]", "result": 0.0313, "unit": "ng/mL"}, {"measurement": "concentration at 4 hr", "setting": "[7]", "result": 0.0184, "unit": "ng/mL"}, {"measurement": "concentration at 8 hr", "setting": "[7]", "result": 0.00726, "unit": "ng/mL"}, {"measurement": "half-life", "setting": "female, Gottingen, minipig, in vivo, t1/2, formoterol 0.4 μg/kg SC1 single site, combination, female 2-0623", "result": 2.33, "unit": "h"}, {"measurement": "half-life", "setting": "female, Gottingen, minipig, in vivo, t1/2, formoterol 0.4 μg/kg SC5 (5 sites), combination, female 2-0623", "result": 12.8, "unit": "h"}, {"measurement": "tlast", "setting": "formoterol 0.4 μg/kg IV in combination with budesonide, female 2-0623", "result": 8.00, "unit": "h"}]}
